# Target: TAAR1 (Mus musculus (Mouse), UniProt Q923Y8)
# Assay: Radioligand binding assay on TAAR1 (membranes of stably transfected HEK293 cells)
# Settings: competition with [3H]-rac-2-(1,2,3,4-tetrahydro-1-naphthyl)-2-imidazoline, 4° C., 30 min
# Protocol: For the construction of expression plasmids the coding sequences of human, rat and mouse TAAR 1 were amplified from genomic DNA essentially as described by Lindemann et al.. The Expand High Fidelity PCR System (Roche Diagnostics) was used with 1.5 mM Mg^2+ and purified PCR products were cloned into pCR2.1—TOPO cloning vector (Invitrogen) following the instructions of the manufacturer. PCR products were subcloned into the pIRESneo2 vector (BD Clontech, Palo Alto, Calif.), and expression vectors were sequence verified before introduction in cell lines.
# HEK293 cells (ATCC # CRL-1573) were cultured essentially as described Lindemann et al. (2005). For the generation of stably transfected cell lines HEK293 cells were transfected with the pIRESneo2 expression plasmids containing the TAAR coding sequences (described above) with Lipofectamine 2000 (Invitrogen) according to the instructions of the manufacturer, and 24 hrs post transfection the culture medium was supplemented with 1 mg/ml G418 (Sigma, Buchs, Switzerland). After a culture period of about 10 d clones were isolated, expanded and tested for responsiveness to trace amines (all compounds purchased from Sigma) with the cAMP Biotrak Enzyme immunoassay (EIA) System (Amersham) following the non-acetylation EIA procedure provided by the manufacturer. […] Membrane Preparation and Radioligand Binding
# Cells at confluence were rinsed with ice-cold phosphate buffered saline without Ca^2+ and Mg^2+ containing 10 mM EDTA and pelleted by centrifugation at 1000 rpm for 5 min at 4° C. The pellet was then washed twice with ice-cold phosphate buffered saline and cell pellet was frozen immediately by immersion in liquid nitrogen and stored until use at −80° C. Cell pellet was then suspended in 20 ml HEPES-NaOH (20 mM), pH 7.4 containing 10 mM EDTA, and homogenized with a Polytron (PT 3000, Kinematica) at 10,000 rpm for 10 s. The homogenate was centrifuged at 48,000×g for 30 min at 4° C. and the pellet resuspended in 20 ml HEPES-NaOH (20 mM), pH 7.4 containing 0.1 mM EDTA (buffer A), and homogenized with a Polytron at 10,000 rpm for 10 s. The homogenate was then centrifuged at 48,000×g for 30 min at 4° C. and the pellet resuspended in 20 ml buffer A, and homogenized with a Polytron at 10,000 rpm for 10 s. Protein concentration was determined by the method of Pierce (Rockford, Ill.). The homogenate was then centrifuged at 48,000×g for 10 min at 4° C., resuspended in HEPES-NaOH (20 mM), pH 7.0 including MgCl2 (10 mM) and […] homogenized with a Polytron at 10,000 rpm for 10 s.
# Binding assay was performed at 4° C. in a final volume of 1 ml, and with an incubation time of 30 min. The radioligand [^3H]-rac-2-(1,2,3,4-tetrahydro-1-naphthyl)-2-imidazoline was used at a concentration equal to the calculated Kd value of 60 nM to give a bound at around 0.1% of the total added radioligand concentration, and a specific binding which represented approximately 70-80% of the total binding. Non-specific binding was defined as the amount of [^3H]-rac-2-(1,2,3,4-tetrahydro-1-naphthyl)-2-imidazoline bound in the presence of the appropriate unlabelled ligand (10 μM). Competing ligands were tested in a wide range of concentrations […]. […] Each experiment was performed in duplicate. All incubations were terminated by rapid filtration through UniFilter-96 plates (Packard Instrument Company) and glass filter GF/C, pre-soaked for at least 2 h in polyethylenimine 0.3%, and using a Filtermate 96 Cell Harvester (Packard Instrument Company). The tubes and filters were then washed 3 times with 1 ml aliquots of cold buffer B. Filters were not dried and soaked in Ultima gold (45 μl/well, Packard Instrument Company) and bound radioactivity was counted by a TopCount Microplate Scintillation Counter (Packard Instrument Company).
# Chain of TAAR1 (Q923Y8 whole entry): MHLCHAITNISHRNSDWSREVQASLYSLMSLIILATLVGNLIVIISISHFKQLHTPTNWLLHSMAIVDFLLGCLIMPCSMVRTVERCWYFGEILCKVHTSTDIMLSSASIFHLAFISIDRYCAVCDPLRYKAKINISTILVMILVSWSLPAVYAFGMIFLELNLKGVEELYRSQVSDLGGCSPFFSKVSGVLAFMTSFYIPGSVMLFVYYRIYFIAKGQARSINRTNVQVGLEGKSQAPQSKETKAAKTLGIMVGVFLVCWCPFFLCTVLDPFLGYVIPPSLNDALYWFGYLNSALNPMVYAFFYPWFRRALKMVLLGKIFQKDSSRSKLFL
row,Ki,SMILES
1,0.0064 µM,C[C@@H](C[C@H]1COC(N)=N1)Oc1ccccc1 [Example 81]
2,0.0063 µM,"CC[C@@H](C[C@H]1COC(N)=N1)Oc1ccc2ncccc2c1 [Example 159, (S)-4-[(S)-2-(Quinolin-6-yloxy)-butyl]-4,5-dihydro-oxazol-2-ylamine]"
3,0.0076 µM,"C[C@H](C[C@H]1COC(N)=N1)Oc1cccc(Cl)c1 [Example 84, (S)-4-[(R)-2-(3-Chloro-phenoxy)-propyl]-4,5-dihydro-oxazol-2-ylamine]"
4,0.0005 µM,"NC1=N[C@@H](CCOc2ccc(Cl)cc2)CO1 [Example 3, (S)-4-[2-(4-Chloro-phenoxy)-ethyl]-4,5-dihydro-oxazol-2-ylamine]"
5,0.008 µM,"CC(CCc1ccccc1)[C@H]1COC(N)=N1 (stereo partly drawn) [Example 90, (4S)-4-(1-Methyl-3-phenyl-propyl)-4,5-dihydro-oxazol-2-ylamine]"
6,0.0059 µM,"NC1=N[C@@H](CCC2(c3ccc(F)cc3F)CC2)CO1 [Example 89, (S)-4-{2-[1-(2,4-Difluoro-phenyl)-cyclopropyl]-ethyl}-4,5-dihydro-oxazol-2-ylamine]"
7,0.001 µM,"N#Cc1cccc(OCC[C@H]2COC(N)=N2)c1 [Example 63, 3-[2-((S)-2-Amino-4,5-dihydro-oxazol-4-yl)-ethoxy]-benzonitrile]"
8,0.0006 µM,"NC1=N[C@@H](CCC2(c3ccc(F)c(Cl)c3)CC2)CO1 [Example 91, (S)-4-{2-[1-(3-Chloro-4-fluoro-phenyl)-cyclopropyl]-ethyl}-4,5-dihydro-oxazol-2-ylamine]"
9,0.0038 µM,"CC[C@@H](C[C@H]1COC(N)=N1)Oc1ccc(C(F)(F)F)cc1 [Example 121, (S)-4-[(S)-2-(4-Trifluoromethyl-phenoxy)-butyl]-4,5-dihydro-oxazol-2-ylamine]"
10,0.0056 µM,"CCC(CC[C@H]1COC(N)=N1)c1ccccc1 (stereo partly drawn) [Example 14, (4S)-4-(3-Phenyl-pentyl)-4,5-dihydro-oxazol-2-ylamine]"
11,0.0024 µM,"C[C@@H](C[C@H]1COC(N)=N1)Oc1ccc(Br)cc1 [Example 71, (S)-4-[(S)-2-(4-Bromo-phenoxy)-propyl]-4,5-dihydro-oxazol-2-ylamine]"
12,0.0011 µM,"C[C@H](CC[C@H]1COC(N)=N1)c1ccc(F)cc1 [Example 116, (S)-4-[(R)-3-(4-Fluoro-phenyl)-butyl]-4,5-dihydro-oxazol-2-ylamine]"
13,0.008 µM,"COC(=O)c1cccc(OCC[C@H]2COC(N)=N2)c1 [Example 127, 3-[2-((S)-2-Amino-4,5-dihydro-oxazol-4-yl)-ethoxy]-benzoic acid methyl ester]"
14,0.0008 µM,"NC1=N[C@@H](CCOc2cccc(OCc3ccccc3)c2)CO1 [Example 34, (S)-4-[2-(3-Benzyloxy-phenoxy)-ethyl]-4,5-dihydro-oxazol-2-ylamine]"
15,0.0012 µM,"NC1=N[C@@H](CCOc2ccc(F)c(F)c2)CO1 [Example 9, (S)-4-[2-(3,4-Difluoro-phenoxy)-ethyl]-4,5-dihydro-oxazol-2-ylamine]"
16,0.0028 µM,"C[C@@H](C[C@H]1COC(N)=N1)Oc1ccc(Cl)cc1 [Example 45, (S)-4-[(S)-2-(4-Chloro-phenoxy)-propyl]-4,5-dihydro-oxazol-2-ylamine]"
17,0.0041 µM,"NC1=N[C@@H](CCOc2ccccc2Cl)CO1 [Example 6, (S)-4-[2-(2-Chloro-phenoxy)-ethyl]-4,5-dihydro-oxazol-2-ylamine]"
18,0.0012 µM,CC[C@@H](C[C@H]1COC(N)=N1)Oc1cccc(Cl)c1 [Example 112]
19,0.0007 µM,"NC1=N[C@@H](CCOc2cc(F)cc(F)c2)CO1 [Example 130, (S)-4-[2-(3,5-Difluoro-phenoxy)-ethyl]-4,5-dihydro-oxazol-2-ylamine]"
20,0.0004 µM,"NC1=N[C@@H](CCOc2cccc(C(=O)OCc3ccccc3)c2)CO1 [Example 136, 3-[2-((S)-2-Amino-4,5-dihydro-oxazol-4-yl)-ethoxy]-benzoic acid benzyl ester]"
21,0.0026 µM,"CCC(CC[C@H]1COC(N)=N1)c1ccc(F)cc1 (stereo partly drawn) [Example 18, (4S)-4-[3-(4-Fluoro-phenyl)-pentyl]-4,5-dihydro-oxazol-2-ylamine]"
22,0.0002 µM,"NC1=N[C@@H](CCOc2ccc(F)c(Cl)c2)CO1 [Example 8, (S)-4-[2-(3-Chloro-4-fluoro-phenoxy)-ethyl]-4,5-dihydro-oxazol-2-ylamine]"
23,0.0017 µM,"NC1=N[C@@H](CCOc2ccccc2)CO1 [Example 1, (S)-4-(2-Phenoxy-ethyl)-4,5-dihydro-oxazol-2-ylamine]"
24,0.0009 µM,"NC1=N[C@@H](CCC2(c3cc(F)cc(Cl)c3)CC2)CO1 [Example 143, (S)-4-{2-[1-(3-Chloro-5-fluoro-phenyl)-cyclopropyl]-ethyl}-4,5-dihydro-oxazol-2-ylamine]"
25,0.0059 µM,"NC1=N[C@@H](CCC2(c3ccc(Cl)cc3)CCC2)CO1 [Example 110, (S)-4-{2-[1-(4-Chloro-phenyl)-cyclobutyl]-ethyl}-4,5-dihydro-oxazol-2-ylamine]"
26,0.0013 µM,"CCC(CC[C@H]1COC(N)=N1)c1cccc(C(F)(F)F)c1 (stereo partly drawn) [Example 28, (4S)-4-[3-(3-Trifluoromethyl-phenyl)-pentyl]-4,5-dihydro-oxazol-2-ylamine]"
27,0.0037 µM,"CC[C@@H](C[C@H]1COC(N)=N1)Oc1ccc(Cl)c(F)c1 [Example 113, (S)-4-[(S)-2-(4-Chloro-3-fluoro-phenoxy)-butyl]-4,5-dihydro-oxazol-2-ylamine]"
28,0.0048 µM,"NC1=N[C@@H](CCOc2ccc(Cc3ccccc3)cc2)CO1 [Example 47, (S)-4-[2-(4-Benzyl-phenoxy)-ethyl]-4,5-dihydro-oxazol-2-ylamine]"
29,0.0032 µM,"CC[C@@H](C[C@H]1COC(N)=N1)Oc1ccc(F)cc1 [Example 117, (S)-4-[(S)-2-(4-Fluoro-phenoxy)-butyl]-4,5-dihydro-oxazol-2-ylamine]"

row,SMILES,Ki
1,"NC1=N[C@@H](CCOc2ccc(Cl)c(Cl)c2)CO1 [Example 57, (S)-4-[2-(3,4-Dichloro-phenoxy)-ethyl]-4,5-dihydro-oxazol-2-ylamine]",0.0003 µM
2,"NC1=N[C@@H](CCOc2cccc(Cl)c2)CO1 [Example 5, (S)-4-[2-(3-Chloro-phenoxy)-ethyl]-4,5-dihydro-oxazol-2-ylamine]",0.0003 µM
3,"NC1=N[C@@H](CCOc2cccc(C(F)(F)F)c2)CO1 [Example 4, (S)-4-[2-(3-Trifluoromethyl-phenoxy)-ethyl]-4,5-dihydro-oxazol-2-ylamine]",0.0009 µM
4,"CCC(CC[C@H]1COC(N)=N1)c1ccc(Cl)cc1 (stereo partly drawn) [Example 27, (4S)-4-[3-(4-Chloro-phenyl)-pentyl]-4,5-dihydro-oxazol-2-ylamine]",0.0017 µM
5,"CC(C)c1cccc(OCC[C@H]2COC(N)=N2)c1 [Example 21, (S)-4-[2-(3-Isopropyl-phenoxy)-ethyl]-4,5-dihydro-oxazol-2-ylamine]",0.0017 µM
6,"NC1=N[C@@H](CCSc2ccc(F)cc2)CO1 [Example 150, (S)-4-[2-(4-Fluoro-phenylsulfanyl)-ethyl]-4,5-dihydro-oxazol-2-ylamine]",0.0007 µM
7,"C[Si](C)(CC[C@H]1COC(N)=N1)c1cccc(Cl)c1 [Example 61, (S)-4-{2-[(3-Chloro-phenyl)-dimethyl-silanyl]-ethyl}-4,5-dihydro-oxazol-2-ylamine]",0.0055 µM
8,"C[C@H](C[C@H]1COC(N)=N1)Oc1ccc(Cl)c(Cl)c1 [Example 96, (S)-4-[(R)-2-(3,4-Dichloro-phenoxy)-propyl]-4,5-dihydro-oxazol-2-ylamine]",0.0062 µM
9,"CC(C)(CC[C@H]1COC(N)=N1)c1ccc(Cl)cc1 [Example 26, (S)-4-[3-(4-Chloro-phenyl)-3-methyl-butyl]-4,5-dihydro-oxazol-2-ylamine]",0.0007 µM
